Data on 23 compounds can be found in US12264156B2, “Compounds and pharmaceutical compositions thereof for the treatment of diseases” (GALAPAGOS NV, priority 2018, dated 2025).

Common to all, as to format: biochemical
Common to all, as to conditions: ADP-Glo SIK kinase assay

The target of experiment [1] is T1, SIK3 (Homo sapiens, UniProt Q9Y2K2).
T1 construct: purchased SignalChem S12-11G-100
Put plainly: ADP-Glo kinase assay, SIK3. The method in brief:
(§1)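 Kinase reactions (enzyme-substrate mix plus ATP) ran 120 min at room temperature for each of SIK3 and SIK2. Signal came from ADP-Glo: unconsumed ATP removed (40 min), ADP reconverted and detected by luciferase/luciferin (30 min), with luminescence tracking kinase activity. 10 μM staurosporine and 1% DMSO (final) served as controls.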
(In ADP-Glo the light output rises with the ADP produced.)

Experiment [2] has as its target T2, SIK2 (Homo sapiens, UniProt Q9H0K1).
T2 construct: purchased ThermoFisher Scientific PV4792
Put plainly: ADP-Glo kinase assay, SIK2. Summed up:
as §1

Experiment [3] concerns the target T3, SIK1 (Homo sapiens, UniProt P57059).
T3 construct: purchased Carna Biosciences 02-131
Put plainly: ADP-Glo kinase assay, SIK1. The method in brief: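 Enzyme–substrate mix was started with ATP and incubated 120 min at RT. ADP formed was quantified by ADP-Glo: 40 min ATP depletion, then 30 min detection reagent converting ADP to ATP for luciferase luminescence, which rises with kinase activity. Controls: 1% DMSO and 10 μM staurosporine (final).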

T1 sequence (Q9Y2K2 whole entry): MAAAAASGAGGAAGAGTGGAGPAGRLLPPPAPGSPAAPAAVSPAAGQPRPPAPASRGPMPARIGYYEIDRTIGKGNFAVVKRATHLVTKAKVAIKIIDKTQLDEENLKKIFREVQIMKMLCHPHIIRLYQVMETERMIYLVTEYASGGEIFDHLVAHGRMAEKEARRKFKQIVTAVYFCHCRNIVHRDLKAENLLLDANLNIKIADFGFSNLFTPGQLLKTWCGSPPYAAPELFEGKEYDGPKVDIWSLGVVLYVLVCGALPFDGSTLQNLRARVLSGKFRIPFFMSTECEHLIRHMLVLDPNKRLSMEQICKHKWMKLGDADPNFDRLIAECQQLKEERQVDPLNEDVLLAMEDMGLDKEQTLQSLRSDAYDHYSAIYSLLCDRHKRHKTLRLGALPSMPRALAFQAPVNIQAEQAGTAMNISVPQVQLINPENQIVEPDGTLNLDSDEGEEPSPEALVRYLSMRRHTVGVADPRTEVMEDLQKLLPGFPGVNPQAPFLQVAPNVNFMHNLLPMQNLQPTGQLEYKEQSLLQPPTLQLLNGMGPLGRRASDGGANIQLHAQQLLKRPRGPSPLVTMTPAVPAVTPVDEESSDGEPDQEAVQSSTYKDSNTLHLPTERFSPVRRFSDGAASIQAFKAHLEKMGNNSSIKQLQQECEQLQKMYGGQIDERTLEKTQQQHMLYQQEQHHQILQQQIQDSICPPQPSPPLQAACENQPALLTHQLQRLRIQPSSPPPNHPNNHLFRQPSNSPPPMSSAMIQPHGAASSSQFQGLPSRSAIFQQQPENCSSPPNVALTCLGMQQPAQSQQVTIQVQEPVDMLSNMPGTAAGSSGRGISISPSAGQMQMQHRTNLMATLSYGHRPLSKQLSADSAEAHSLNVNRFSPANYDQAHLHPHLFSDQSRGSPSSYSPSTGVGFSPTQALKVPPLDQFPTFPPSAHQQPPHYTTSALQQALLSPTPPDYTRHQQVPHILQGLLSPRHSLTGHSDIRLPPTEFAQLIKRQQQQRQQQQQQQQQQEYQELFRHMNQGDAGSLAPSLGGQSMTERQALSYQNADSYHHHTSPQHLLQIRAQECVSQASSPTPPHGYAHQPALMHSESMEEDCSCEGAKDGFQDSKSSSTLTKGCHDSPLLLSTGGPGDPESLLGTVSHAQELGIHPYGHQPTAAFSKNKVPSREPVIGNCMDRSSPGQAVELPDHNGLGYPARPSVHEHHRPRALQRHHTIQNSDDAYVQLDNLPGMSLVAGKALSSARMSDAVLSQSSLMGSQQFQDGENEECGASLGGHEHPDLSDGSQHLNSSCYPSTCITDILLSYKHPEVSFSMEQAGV
T3 sequence (P57059 whole entry): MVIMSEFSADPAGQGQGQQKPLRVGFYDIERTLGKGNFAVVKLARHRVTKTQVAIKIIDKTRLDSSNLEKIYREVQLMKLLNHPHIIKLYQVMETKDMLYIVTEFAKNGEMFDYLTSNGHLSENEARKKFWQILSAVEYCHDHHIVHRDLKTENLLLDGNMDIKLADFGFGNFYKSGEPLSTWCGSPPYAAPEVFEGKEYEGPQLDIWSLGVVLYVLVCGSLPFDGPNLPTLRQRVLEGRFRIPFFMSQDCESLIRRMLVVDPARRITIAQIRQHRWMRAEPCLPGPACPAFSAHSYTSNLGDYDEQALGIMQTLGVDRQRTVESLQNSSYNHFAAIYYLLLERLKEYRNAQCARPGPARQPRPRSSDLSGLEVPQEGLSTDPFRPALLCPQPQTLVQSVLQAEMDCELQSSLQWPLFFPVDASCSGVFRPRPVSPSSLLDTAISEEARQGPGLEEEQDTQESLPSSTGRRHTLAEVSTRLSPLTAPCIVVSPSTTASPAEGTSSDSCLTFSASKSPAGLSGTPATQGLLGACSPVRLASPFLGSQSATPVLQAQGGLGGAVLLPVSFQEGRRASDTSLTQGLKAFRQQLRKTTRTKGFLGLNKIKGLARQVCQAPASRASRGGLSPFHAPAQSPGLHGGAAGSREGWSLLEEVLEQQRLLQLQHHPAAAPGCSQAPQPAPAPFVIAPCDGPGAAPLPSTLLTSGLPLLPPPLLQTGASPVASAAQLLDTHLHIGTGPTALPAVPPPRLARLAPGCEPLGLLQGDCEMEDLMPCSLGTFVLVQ
T2 sequence (Q9H0K1 whole entry): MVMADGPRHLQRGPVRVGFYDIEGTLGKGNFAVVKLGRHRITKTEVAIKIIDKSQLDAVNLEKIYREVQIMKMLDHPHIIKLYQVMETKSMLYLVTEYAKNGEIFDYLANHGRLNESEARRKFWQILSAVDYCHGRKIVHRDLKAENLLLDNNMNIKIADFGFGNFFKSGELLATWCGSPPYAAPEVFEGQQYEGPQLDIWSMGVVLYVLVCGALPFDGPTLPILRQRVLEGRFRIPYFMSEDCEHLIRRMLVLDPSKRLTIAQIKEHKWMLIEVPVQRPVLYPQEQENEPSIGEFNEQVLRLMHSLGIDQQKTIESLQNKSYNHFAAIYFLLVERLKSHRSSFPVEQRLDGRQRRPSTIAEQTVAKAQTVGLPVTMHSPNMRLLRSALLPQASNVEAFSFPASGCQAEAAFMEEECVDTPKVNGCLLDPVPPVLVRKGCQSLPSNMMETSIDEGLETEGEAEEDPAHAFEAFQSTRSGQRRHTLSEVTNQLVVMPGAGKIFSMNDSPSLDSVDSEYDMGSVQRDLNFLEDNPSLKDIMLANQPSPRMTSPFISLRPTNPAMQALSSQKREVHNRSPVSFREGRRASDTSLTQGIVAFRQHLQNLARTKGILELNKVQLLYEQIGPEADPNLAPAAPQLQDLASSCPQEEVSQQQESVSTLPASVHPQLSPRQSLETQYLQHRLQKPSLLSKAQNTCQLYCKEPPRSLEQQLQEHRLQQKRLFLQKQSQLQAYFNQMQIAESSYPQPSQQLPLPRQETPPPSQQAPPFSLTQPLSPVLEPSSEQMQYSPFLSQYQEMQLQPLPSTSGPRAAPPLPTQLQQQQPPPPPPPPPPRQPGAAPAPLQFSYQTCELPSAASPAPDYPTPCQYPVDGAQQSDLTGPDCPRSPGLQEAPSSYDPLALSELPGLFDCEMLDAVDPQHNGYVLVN

As usually defined, the IC50 is the concentration needed to halve the response being measured. A lower IC50 goes with inhibition by little substance. As for `COc1cc(-c2cnc3cc(OCC(F)F)ccn23)cc(OC(F)F)c1C(=O)NC1CC1` [compound 90, N-cyclopropyl-4-[7-(2,2-difluoroethoxy)imidazo [1,2-a]pyridin-3-yl]-2-(difluoromethoxy)-6-methoxy-benzamide], the concentration for half-maximal inhibition (IC50) in experiment [1] lay within 0.01 to 10 nM; in experiment [2], 0.01 to 10 nM; in experiment [3], 10 to 100 nM.
With `COc1cc(-c2cnc3cc(OCCN(C)c4ccccn4)ccn23)cc(OC(F)F)c1C(=O)NC1CC1` [Cpd 183, N-cyclopropyl-2-(difluoromethoxy)-6-methoxy-4-[7-[2-[methyl(2-pyridyl)amino]ethoxy]imidazo[1,2-a]pyridin-3-yl]benzamide], the IC50 in experiment [1], in experiment [2] and in experiment [3] was 0.01 to 10 nM in each case.
For the compound `COc1cc(-c2cnc3cc(OCC4CN(C)CCO4)ccn23)cc(OC(F)F)c1C(=O)NC1CC1` (stereo not drawn) [compound 82, N-cyclopropyl-2-(difluoromethoxy)-6-methoxy-4-[7-[(4-methylmorpholin-2-yl)methoxy]imidazo[1,2-a]pyridin-3-yl]benzamide], the IC50 was 0.01 to 10 nM in experiment [1], 0.01 to 10 nM in experiment [2] and 10 to 100 nM in experiment [3].
Consider `COc1cc(-c2cnc3cc(OCC(C)N(C)C)ccn23)cc(OC(F)F)c1C(=O)NC1CC1` (stereo not drawn) [compound 202, N-cyclopropyl-2-(difluoromethoxy)-4-[7-[2-(dimethylamino)propoxy]imidazo[1,2-a]pyridin-3-yl]-6-methoxy-benzamide], for which the 50% inhibitory concentration (IC50) in experiment [1] was in the range of 0.01 to 10 nM; in experiment [2], 0.01 to 10 nM; in experiment [3], 100 to 500 nM.
Take `COc1cc(-c2cnc3cc(OCCN(C)CC(F)F)ccn23)cc(OC(F)F)c1C(=O)NC1CC1` [compound 236, N-cyclopropyl-4-[7-[2-[2,2-difluoroethyl(methyl)amino]ethoxy]imidazo[1,2-a]pyridin-3-yl]-2-(difluoromethoxy)-6-methoxy-benzamide]: the IC50 in experiment [1] fell in the range of 0.01 to 10 nM; in experiment [2], 0.01 to 10 nM; in experiment [3], 10 to 100 nM.
Take `COc1cc(-c2cnc3cc(OCC4CCN(C)CC4)ccn23)cc(OC(F)F)c1C(=O)NC1CC1` [compound 25, N-cyclopropyl-2-(difluoromethoxy)-6-methoxy-4-[7-[(1-methyl-4-piperidyl)methoxy]imidazo[1,2-a]pyridin-3-yl]benzamide]: the IC50 in experiment [1], in experiment [2] and in experiment [3] was 0.01 to 10 nM in each case.
Take `COc1cc(-c2cnc3cc(OCCN4CCC(F)(F)C4)ccn23)cc(OC(F)F)c1C(=O)NC1CC1` [compound 180, N-cyclopropyl-2-(difluoromethoxy)-4-[7-[2-(3,3-difluoropyrrolidin-1-yl)ethoxy]imidazo[1,2-a]pyridin-3-yl]-6-methoxy-benzamide]: the 50% inhibitory concentration (IC50) in experiment [1] lay within 0.01 to 10 nM; in experiment [2], 0.01 to 10 nM; in experiment [3], 10 to 100 nM.
Take `Cc1cc(-c2cnc3cc(OCCN4CCOCC4)ccn23)cc(OC(F)F)c1C(=O)NC1CC1` [compound 241, N-cyclopropyl-2-(difluoromethoxy)-6-methyl-4-[7-(2-morpholinoethoxy)imidazo[1,2-a]pyridin-3-yl]benzamide]: the 50% inhibitory concentration (IC50) lay in the range of 0.01 to 10 nM in experiment [1], 10 to 100 nM in experiment [2] and 100 to 500 nM in experiment [3].
In the same order, the values of `COc1ccn2c(-c3cc4c(c(OC)c3)C(=O)N(CC(F)(F)F)CC4)cnc2c1` [Cpd 256, 8-methoxy-6-(7-methoxyimidazo[1,2-a]pyridin-3-yl)-2-(2,2,2-trifluoroethyl)-3,4-dihydroisoquinolin-1-one] are 10 to 100 nM, 10 to 100 nM and 100 to 500 nM.
`O=C1c2c(cc(-c3cnc4cc(OCCN5CCOCC5)ccn34)cc2OC(F)F)CCN1CC(F)F` [Cpd 247, 2-(2,2-difluoroethyl)-8-(difluoromethoxy)-6-[7-(2-morpholinoethoxy)imidazo[1,2-a]pyridin-3-yl]-3,4-dihydroisoquinolin-1-one]: the IC50 in experiment [1] fell in the range of 0.01 to 10 nM; in experiment [2], 0.01 to 10 nM; in experiment [3], 100 to 500 nM.
Take `COc1cc(-c2cnc3cc(OCCN4CCOC(C5CC5)C4)ccn23)cc(OC(F)F)c1C(=O)NC1CC1` (stereo not drawn) [compound 196, N-cyclopropyl-4-[7-[2-(2-cyclopropylmorpholin-4-yl)ethoxy]imidazo[1,2-a]pyridin-3-yl]-2-(difluoromethoxy)-6-methoxy-benzamide]: the results for the 50% inhibitory concentration (IC50) in experiment [1], in experiment [2] and in experiment [3] were 0.01 to 10 nM, 0.01 to 10 nM and 10 to 100 nM, respectively.
Take `COCCOCCOc1ccn2c(-c3cc(OC)c(C(=O)NC4CC4)c(OC(F)F)c3)cnc2c1` [compound 38, N-cyclopropyl-2-(difluoromethoxy)-6-methoxy-4-[7-[2-(2-methoxyethoxy)ethoxy]imidazo[1,2-a]pyridin-3-yl]benzamide]: the IC50 in experiment [1] is 0.01 to 10 nM; in experiment [2], 0.01 to 10 nM; in experiment [3], 10 to 100 nM.
Take `COc1cc(-c2cnc3cc(OC[C@@H](N)C4CCCCC4)ccn23)cc(OC(F)F)c1C(=O)NC1CC1` [compound 133, 4-[7-[(2S)-2-amino-2-cyclohexyl-ethoxy]imidazo[1,2-a]pyridin-3-yl]-N-cyclopropyl-2-(difluoromethoxy)-6-methoxy-benzamide]: the 50% inhibitory concentration (IC50) in experiment [1] lay in the range of 0.01 to 10 nM; in experiment [2], 0.01 to 10 nM; in experiment [3] it was 10 to 100 nM.
Consider `COc1cc(-c2cnc3cc(OCCN4CCS(=O)(=O)CC4)ccn23)cc(OC(F)F)c1C(=O)NC1CC1` [compound 22, N-cyclopropyl-2-(difluoromethoxy)-4-[7-[2-(1,1-dioxo-1,4-thiazinan-4-yl)ethoxy]imidazo[1,2-a]pyridin-3-yl]-6-methoxy-benzamide], for which the IC50 fell in the range of 0.01 to 10 nM in experiment [1], 0.01 to 10 nM in experiment [2] and 10 to 100 nM in experiment [3].
With `COCC(C)(C)Oc1ccn2c(-c3cc(OC)c(C(=O)NC4CC4)c(OC(F)F)c3)cnc2c1` [Cpd 260, N-cyclopropyl-2-(difluoromethoxy)-6-methoxy-4-[7-(2-methoxy-1,1-dimethyl-ethoxy)imidazo[1,2-a]pyridin-3-yl]benzamide], the figures for the IC50 in experiment [1], in experiment [2] and in experiment [3] were 10 to 100 nM, over 500 nM and over 500 nM, respectively.
Consider `COc1cc(-c2cnc3cc(OCC4CN(C)C(=O)O4)ccn23)cc(OC(F)F)c1C(=O)NC1CC1` (stereo not drawn) [compound 228, N-cyclopropyl-2-(difluoromethoxy)-6-methoxy-4-[7-[(3-methyl-2-oxo-oxazolidin-5-yl)methoxy]imidazo[1,2-a]pyridin-3-yl]benzamide], for which the IC50 in experiment [1], in experiment [2] and in experiment [3] was 0.01 to 10 nM throughout.
Consider `COc1cc(-c2cnc3cc(OCc4noc(C)n4)ccn23)cc(OC(F)F)c1C(=O)NC1CC1` [compound 231, N-cyclopropyl-2-(difluoromethoxy)-6-methoxy-4-[7-[(5-methyl-1,2,4-oxadiazol-3-yl)methoxy]imidazo[1,2-a]pyridin-3-yl]benzamide], for which the figures for the IC50 in experiment [1], in experiment [2] and in experiment [3] were 0.01 to 10 nM, 0.01 to 10 nM and 10 to 100 nM, respectively.
As for `COc1cc(-c2cnc3cc(OCCN(CC(F)F)C4CC4)ccn23)cc(OC(F)F)c1C(=O)NC1CC1` [compound 235, N-cyclopropyl-4-[7-[2-[cyclopropyl (2,2-difluoroethyl)amino]ethoxy]imidazo [1,2-a]pyridin-3-yl]-2-(difluoromethoxy)-6-methoxy-benzamide], the half-inhibitory concentration (IC50) in experiment [1], in experiment [2] and in experiment [3] was 0.01 to 10 nM in each case.
On to `CCOC(=O)C1CCCN(CCCOc2ccn3c(-c4cc(OC)c(C(=O)NC5CC5)c(OC(F)F)c4)cnc3c2)C1` (stereo not drawn) [compound 395, ethyl 1-[3-[3-[4-(cyclopropylcarbamoyl)-3-(difluoromethoxy)-5-methoxy-phenyl]imidazo[1,2-a]pyridin-7-yl]oxypropyl]piperidine-3-carboxylate], for which the half-maximal inhibitory concentration (IC50) in experiment [1] lay within 0.01 to 10 nM; in experiment [2], 0.01 to 10 nM; in experiment [3], 10 to 100 nM.
As to `COc1cc(-c2cnc3cc(OCCC#N)ccn23)cc(OC(F)F)c1C(=O)NC1CC1` [compound 31, 4-[7-(2-cyanoethoxy)imidazo[1,2-a]pyridin-3-yl]-N-cyclopropyl-2-(difluoromethoxy)-6-methoxy-benzamide], the IC50 in experiment [1], in experiment [2] and in experiment [3] was over 500 nM each time.
`COc1cc(-c2cnc3cc(OCc4cccnn4)ccn23)cc(OC(F)F)c1C(=O)NC1CC1` [compound 226, N-cyclopropyl-2-(difluoromethoxy)-6-methoxy-4-[7-(pyridazin-3-ylmethoxy)imidazo[1,2-a]pyridin-3-yl]benzamide]: the IC50 lay within 0.01 to 10 nM in experiment [1], 0.01 to 10 nM in experiment [2] and 10 to 100 nM in experiment [3].
`COc1cc(-c2cnc3cc(OCC(O)CN4CC[C@@H](O)C4)ccn23)cc(OC(F)F)c1C(=O)NC1CC1` (stereo partly drawn) [compound 376, N-cyclopropyl-2-(difluoromethoxy)-4-[7-[2-hydroxy-3-[(3R)-3-hydroxypyrrolidin-1-yl]propoxy]imidazo[1,2-a]pyridin-3-yl]-6-methoxy-benzamide]: the IC50 lay within 0.01 to 10 nM in experiment [1], 0.01 to 10 nM in experiment [2] and 10 to 100 nM in experiment [3].
For `COc1cc(-c2cnc3cc(OCCN4CCOC(C(F)(F)F)C4)ccn23)cc(OC(F)F)c1C(=O)NC1CC1` (stereo not drawn) [compound 179, N-cyclopropyl-2-(difluoromethoxy)-6-methoxy-4-[7-[2-[2-(trifluoromethyl)morpholin-4-yl]ethoxy]imidazo[1,2-a]pyridin-3-yl]benzamide], the IC50 fell in the range of 0.01 to 10 nM in experiment [1], 0.01 to 10 nM in experiment [2] and 10 to 100 nM in experiment [3].
